Measured values taken from ChEMBL document CHEMBL1157348, “The alkaloid conessine and analogues as potent histamine H3 receptor antagonists” (J Med Chem, 2008).
Active and inactive are the calls of the source. No cut-off for these calls is given here.

Legend:
[1] = molecular target: Histamine H3 receptor (Rattus norvegicus, UniProt Q9QYN8); experiment: Displacement of [3H]NAMH from rat full length histamine H3 receptor expressed in rat C6 cells; format: cell-based; conditions: read-out: Ki
[2] = molecular target: T1, Alpha-2C adrenergic receptor (Homo sapiens, UniProt P18825); experiment: Displacement of [3H]rauwolscine from human adrenergic alpha 2C4 receptor expressed in mouse LTK- cells; format: cell-based
T1 sequence (P18825 whole entry): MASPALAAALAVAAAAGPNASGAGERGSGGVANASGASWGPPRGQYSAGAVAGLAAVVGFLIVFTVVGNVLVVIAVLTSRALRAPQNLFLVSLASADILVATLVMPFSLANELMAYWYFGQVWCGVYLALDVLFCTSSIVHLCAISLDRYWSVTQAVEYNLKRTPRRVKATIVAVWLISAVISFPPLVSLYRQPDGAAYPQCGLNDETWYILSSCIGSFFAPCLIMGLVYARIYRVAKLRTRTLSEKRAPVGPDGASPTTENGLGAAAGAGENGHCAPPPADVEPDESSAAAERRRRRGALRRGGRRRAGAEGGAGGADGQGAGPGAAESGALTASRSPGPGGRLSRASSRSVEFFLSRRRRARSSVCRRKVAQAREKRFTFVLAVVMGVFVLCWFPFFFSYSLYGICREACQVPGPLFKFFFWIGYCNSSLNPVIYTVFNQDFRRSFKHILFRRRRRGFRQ

[3] = molecular target: T2, Histamine H3 receptor (Homo sapiens, UniProt Q9Y5N1); experiment: Antagonist activity at human full length histamine H3 receptor expressed in HEK293 cells assessed as inhibition of (R)-alpha-methylhistamine-induced intracellular calcium release by FLIPR; format: functional, cell-based
T2 sequence (Q9Y5N1 whole entry): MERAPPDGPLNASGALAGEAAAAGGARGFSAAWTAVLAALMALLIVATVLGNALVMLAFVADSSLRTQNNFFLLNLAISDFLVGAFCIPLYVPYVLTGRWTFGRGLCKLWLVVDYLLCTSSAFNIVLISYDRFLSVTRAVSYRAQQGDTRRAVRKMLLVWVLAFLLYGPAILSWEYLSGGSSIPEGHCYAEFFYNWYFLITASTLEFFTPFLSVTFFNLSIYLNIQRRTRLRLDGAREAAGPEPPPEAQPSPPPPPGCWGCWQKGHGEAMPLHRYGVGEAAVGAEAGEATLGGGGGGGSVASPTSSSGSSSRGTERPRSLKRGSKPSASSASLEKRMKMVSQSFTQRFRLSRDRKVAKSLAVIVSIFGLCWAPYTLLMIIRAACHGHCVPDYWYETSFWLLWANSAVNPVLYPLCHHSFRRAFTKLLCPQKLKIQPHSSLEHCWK

[4] = Binding affinity at serotonin receptor
[5] = Binding affinity at cholinergic receptor
[6] = Selectivity ratio for human adrenergic alpha 2C4 receptor over human H3 receptor
[7] = Half life in rat; format: ADME, organism-based; conditions: in vivo
[8] = Inhibition of CYP enzyme; format: ADME
[9] = tested on: Rattus norvegicus; experiment: Toxicity in rat assessed as CNS side effects at 1.3 to 13 mg/kg, ip; format: organism-based; design: dose 1.3-13 mg/kg, route intraperitoneal; conditions: in vivo
[10] = molecular target: T3, Estrogen receptor (Homo sapiens, UniProt P03372); experiment: Binding affinity at estrogen receptor
T3 sequence (P03372 whole entry): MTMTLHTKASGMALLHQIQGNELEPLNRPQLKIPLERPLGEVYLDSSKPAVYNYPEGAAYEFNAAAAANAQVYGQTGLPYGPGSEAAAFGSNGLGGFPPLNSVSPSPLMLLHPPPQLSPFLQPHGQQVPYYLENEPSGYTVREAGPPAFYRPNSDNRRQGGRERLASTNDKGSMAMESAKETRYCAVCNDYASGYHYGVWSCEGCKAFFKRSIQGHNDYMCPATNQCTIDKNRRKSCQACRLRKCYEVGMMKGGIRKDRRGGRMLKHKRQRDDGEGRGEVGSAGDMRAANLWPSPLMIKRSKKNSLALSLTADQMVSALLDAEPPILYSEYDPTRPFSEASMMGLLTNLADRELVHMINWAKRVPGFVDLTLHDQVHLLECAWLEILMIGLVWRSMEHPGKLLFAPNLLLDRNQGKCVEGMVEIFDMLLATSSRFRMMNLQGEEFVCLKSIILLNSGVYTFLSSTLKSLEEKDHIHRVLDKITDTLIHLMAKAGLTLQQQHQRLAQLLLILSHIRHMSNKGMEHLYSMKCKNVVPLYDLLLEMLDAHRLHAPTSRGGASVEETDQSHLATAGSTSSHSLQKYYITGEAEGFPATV

[11] = molecular target: T4, Progesterone receptor (Homo sapiens, UniProt P06401); experiment: Binding affinity at progesterone receptor
T4 sequence (P06401 whole entry): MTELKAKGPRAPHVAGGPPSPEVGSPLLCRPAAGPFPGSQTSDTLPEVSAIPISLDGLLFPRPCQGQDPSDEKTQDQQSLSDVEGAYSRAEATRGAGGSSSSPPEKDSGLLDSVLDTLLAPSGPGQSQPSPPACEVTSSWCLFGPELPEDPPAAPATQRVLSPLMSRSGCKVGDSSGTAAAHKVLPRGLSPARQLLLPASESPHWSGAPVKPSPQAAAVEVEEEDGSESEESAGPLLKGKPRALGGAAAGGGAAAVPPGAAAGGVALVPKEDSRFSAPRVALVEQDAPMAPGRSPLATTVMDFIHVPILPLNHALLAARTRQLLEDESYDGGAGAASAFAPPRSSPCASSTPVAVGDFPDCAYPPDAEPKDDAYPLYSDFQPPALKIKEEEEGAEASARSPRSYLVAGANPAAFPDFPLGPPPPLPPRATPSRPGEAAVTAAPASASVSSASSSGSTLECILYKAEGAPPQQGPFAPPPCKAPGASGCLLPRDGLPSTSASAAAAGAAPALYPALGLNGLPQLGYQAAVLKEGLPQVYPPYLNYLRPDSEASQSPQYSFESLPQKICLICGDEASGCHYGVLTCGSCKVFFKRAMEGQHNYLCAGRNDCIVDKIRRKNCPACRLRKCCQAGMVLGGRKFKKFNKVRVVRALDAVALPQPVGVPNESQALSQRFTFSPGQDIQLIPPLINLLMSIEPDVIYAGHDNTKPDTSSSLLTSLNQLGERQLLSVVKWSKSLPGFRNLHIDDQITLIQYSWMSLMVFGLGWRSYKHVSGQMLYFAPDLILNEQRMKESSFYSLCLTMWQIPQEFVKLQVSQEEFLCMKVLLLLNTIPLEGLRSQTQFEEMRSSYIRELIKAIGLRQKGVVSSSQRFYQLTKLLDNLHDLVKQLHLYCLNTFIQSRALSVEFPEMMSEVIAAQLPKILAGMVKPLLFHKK

[12] = tested on: Mus musculus; experiment: Increase in learning and memory performance in mouse at 0.01 mg/kg, ip after 24 hrs by passive avoidance test; format: functional, organism-based; design: dose 0.01 mg/kg
[13] = molecular target: T2, Histamine H3 receptor; experiment: Antagonist activity at H3 receptor assessed as inhibition of [35S]gammaGTP binding relative to control

Sequence of Histamine H3 receptor (Rattus norvegicus, UniProt Q9QYN8) (Q9QYN8 whole entry): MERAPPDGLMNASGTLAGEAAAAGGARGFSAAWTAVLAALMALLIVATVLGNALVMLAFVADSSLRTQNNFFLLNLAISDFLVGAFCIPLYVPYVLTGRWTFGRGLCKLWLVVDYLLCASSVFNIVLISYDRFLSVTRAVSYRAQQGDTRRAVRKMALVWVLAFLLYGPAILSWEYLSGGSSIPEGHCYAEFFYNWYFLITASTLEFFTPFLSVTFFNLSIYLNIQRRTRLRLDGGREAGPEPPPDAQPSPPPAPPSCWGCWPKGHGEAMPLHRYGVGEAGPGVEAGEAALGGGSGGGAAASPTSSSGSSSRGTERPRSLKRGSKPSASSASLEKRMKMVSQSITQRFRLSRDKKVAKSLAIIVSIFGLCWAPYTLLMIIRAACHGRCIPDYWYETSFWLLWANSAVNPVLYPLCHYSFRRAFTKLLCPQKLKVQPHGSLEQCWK

For CN[C@@H](C(=O)N(C)[C@H]1CC[C@@]2(C)C(=CC[C@H]3[C@@H]4CC[C@@H]5[C@H](C)N(C)C[C@@]54CC[C@@H]32)C1)C(C)C, the Ki [1] was 2.57 nM, the Ki [2] was 77.6 nM and the Kb [3] was 4 nM. For the same molecule, the Ki [4] was over 10000 nM, the Ki [5] was over 10000 nM and the Selectivity ratio [6] was 370. For the same molecule, the half-life [7] was 77 h, the IC50 [8] was over 10000 nM and the Activity [9] was “Non-toxic”. For the same molecule, the Ki [10] was over 30000 nM, the Ki [11] was over 30000 nM and the Activity [12] was “Active”. It also gave an EC50 [13] of 3.3 nM.
